Laboratory results taken from article PMC9406419, “OATD-02 Validates the Benefits of Pharmacological Inhibition of Arginase 1 and 2 in Cancer” (Cancers, 2022).

Test system: CT26 tumours
Test: Syngeneic CT26 model, combination with epacadostat and anti-PD-L1 antibody
Format: in vivo, mouse
Details: suboptimal doses: OATD-02 50 mg/kg PO BID; epacadostat 30 mg/kg PO BID; anti-PD-L1 2.5 mg/kg IP days 8, 10, 12, 14, 16
Protocol: CT26 and K562 in vivo experiments were conducted at Molecure SA. All experimental procedures were approved by the 1st Local Ethics Committee in Warsaw (Poland). For the syngeneic CT26 model, 7–8-week old BALB/c females (n = 9–18 per group, BALB/cAnNCrl, Charles River Laboratories) were injected subcutaneously in the right flank with 5 × 10^5 CT26 cells. […] Anti-PD-L1 antibody (InVivoPlus anti-mouse PD-L1, clone 10F.9G2, BioXCell, lot 615416D1) was injected intraperitoneally at 2.5 mg/kg on days: 8, 10, 12, 14 and 16 post tumour cells inoculation. Control groups received vehicle (saline) or isotype antibody (InVivoPlus rat IgG2b, anti-KLH, BioXCell, lot 629816D1). For the xenograft K562 model, 7–8 week-old athymic nude mice (n = 8–11 per group, Crl:NU(NCr)-Foxn1^nu, Charles River Laboratories) or NK cell-deficient Fox Chase SCID Beige mice (n = 10–12 per group, CB17.Cg-Prkdc^scidLyst^bg-J/Crl, Charles River Laboratories) were injected subcutaneously in the right flank with 1 × 10^7 K562 cells. […] Tumour volume measured by a digital calliper (width × length × depth × π/6) was recorded three times per week. Animals were euthanized when tumours were necrotized or volume exceeded 2000 mm^3. Renca in vivo efficacy study was performed at Crown Biosciences Inc. (Taicang, China). […] Tumour volumes (length × width^2 × 0.5) were measured twice per week. […]

In the case of `NS(=O)(=O)NCCNc1nonc1C(=NO)Nc1ccc(F)c(Br)c1` [epacadostat, reference compound], the “TGI, CT26 tumor growth inhibition - day 24” value is reported as 41%.
